The results in this text go back to the OligoGym collection.

Bases are written 5' to 3'; sugars and linkages follow in the same order, as letters with counts (s phosphorothioate, o phosphodiester; PS: all linkages phosphorothioate). C may stand for cytosine or 5-methylcytosine; the collection does not tell. l = locked nucleic acid (LNA); d = 2'-deoxy (DNA)

The series deals with HIF1A. Put plainly: HeLa, 100 nM transfected, 24 h, mean of 3. The conditions noted are these: ASO.
The sequence “TGGCAAGCATCCTGTA (sugars lldllddddddddldl, PS)” returned a caspase activation (% of PBS control) of 418.
As to “TGGCAAGCATCCTGTA (sugars lldlldddddddlddl, PS)”, the caspase activation (% of PBS control) was 459.
In the case of “TGGCAAGCATCCTGTA (sugars lldlldddddddldll, PS)”, the caspase activation (% of PBS control) was 454.
In the case of “TGGCAAGCATCCTGTA (sugars lldlldddddddlldl, PS)”, the caspase activation (% of PBS control) is 362.
“TGGCAAGCATCCTGTA (sugars lldllddddddldddl, PS)” showed a caspase activation (% of PBS control) of 385.
With “TGGCAAGCATCCTGTA (sugars lldllddddddlddll, PS)”, the caspase activation (% of PBS control) amounted to 475.
“TGGCAAGCATCCTGTA (sugars lldllddddddldldl, PS)” showed a caspase activation (% of PBS control) of 483.
The sequence “TGGCAAGCATCCTGTA (sugars lldllddddddldlll, PS)” gave a caspase activation (% of PBS control) of 438.
“TGGCAAGCATCCTGTA (sugars lldllddddddllddl, PS)” came in with a caspase activation (% of PBS control) of 354.
The sequence “TGGCAAGCATCCTGTA (sugars lldllddddddlldll, PS)” returned a caspase activation (% of PBS control) of 493.
The sequence “TGGCAAGCATCCTGTA (sugars lldllddddddllldl, PS)” returned a caspase activation (% of PBS control) of 474.
In the case of “TGGCAAGCATCCTGTA (sugars lllddddddddldldl, PS)”, the caspase activation (% of PBS control) came to 385.
“TGGCAAGCATCCTGTA (sugars llldlddddddddldl, PS)” returned a caspase activation (% of PBS control) of 350.
“TGGCAAGCATCCTGTA (sugars llldldddddddlddl, PS)” returned a caspase activation (% of PBS control) of 341.
On to “TGGCAAGCATCCTGTA (sugars llldldddddddldll, PS)”, for which the caspase activation (% of PBS control) worked out at 367.
In turn, “TGGCAAGCATCCTGTA (sugars llldldddddddlldl, PS)” gave a caspase activation (% of PBS control) of 367.
On to “TGGCAAGCATCCTGTA (sugars llldlddddddldddl, PS)”, for which the caspase activation (% of PBS control) was determined as 253.
In turn, “TGGCAAGCATCCTGTA (sugars llldlddddddlddll, PS)” registered a caspase activation (% of PBS control) of 348.
As for “TGGCAAGCATCCTGTA (sugars llldlddddddldldl, PS)”, the caspase activation (% of PBS control) worked out at 350.
With “TGGCAAGCATCCTGTA (sugars llldlddddddldlll, PS)”, the caspase activation (% of PBS control) came out at 428.
For “TGGCAAGCATCCTGTA (sugars llldlddddddllddl, PS)”, the caspase activation (% of PBS control) stood at 268.
“TGGCAAGCATCCTGTA (sugars llldlddddddlldll, PS)”: the caspase activation (% of PBS control) was found to be 458.
The sequence “TGGCAAGCATCCTGTA (sugars llldlddddddllldl, PS)” registered a caspase activation (% of PBS control) of 413.
Regarding “TGGCAAGCATCCTGTA (sugars lllldddddddldldl, PS)”, the caspase activation (% of PBS control) was determined as 372.
In turn, “TGGCAAGCATCCTGTA (sugars lllllddddddldldl, PS)” registered a caspase activation (% of PBS control) of 373.
Under “TTACTGCCTTCTT (sugars l1 d1 l1 d7 l3, PS)” stands 183; under “TTACTGCCTTCTT (sugars l1 d1 l1 d8 l2, PS)”, 146.
As for “TTACTGCCTTCTT (sugars l1 d1 l1 d9 l1, PS)”, the caspase activation (% of PBS control) amounted to 117.
For the sequence “TTACTGCCTTCTT (sugars l1 d1 l2 d6 l3, PS)”, the caspase activation (% of PBS control) is 237.
Regarding “TTACTGCCTTCTT (sugars l1 d1 l2 d7 l2, PS)”, the caspase activation (% of PBS control) is 165.
The result for “TTACTGCCTTCTT (sugars l1 d1 l2 d8 l1, PS)” reads 153; that for “TTACTGCCTTCTT (sugars l1 d2 l1 d6 l3, PS)”, 131; that for “TTACTGCCTTCTT (sugars l1 d2 l1 d7 l2, PS)”, 126.
“TTACTGCCTTCTT (sugars l1 d2 l1 d8 l1, PS)”: the caspase activation (% of PBS control) amounted to 105.
